Entries after “also recorded” stand apart in the source; their conditions may differ. Like-named read-outs stand apart in the source and are kept apart here.
Legend:
Format in all cases: physicochemical
[1] = Comparative dissolution of Imatinib mesylate capsules 100 mg (α2 and β-forms)
[2] = Stability of α2 form under accelerated stress conditions in bulk and formulated capsule, XRPD
[3] = Stability of the polymorphic form (metastable or stable); settings: room temperature and higher temperatures up to 120° C.
[4] = Flow properties / suitability for solid dosage forms
Hygroscopicity = test: Hygroscopicity
[5] = Heat stability of α2-crystal form, examined by XRPD; settings: for Polymorph form detected after heating: XRPD
Description: Pure α2-crystal polymorph 1 gm prepared by the process described in Example 1 was taken in a boiling test tube and heated gradually in oil bath the substance was examined by XRPD. The results are tabulated below

[6] = 0 Month at 40 ± 2° C./75 ± 5% RH
[7] = 1 Month at 40 ± 2° C./75 ± 5% RH
[8] = 2 Months at 40 ± 2° C./75 ± 5% RH
[9] = 3 Months at 40 ± 2° C./75 ± 5% RH
[10] = 6 Months at 40 ± 2° C./75 ± 5% RH

Cc1ccc(NC(=O)c2ccc(CN3CCN(C)CC3)cc2)cc1Nc1nccc(-c2cccnc2)n1 [α2 form, N-{5-[4-(4-methylpiperazino-methyl)-benzoylamido]-2-methylphenyl}-4-(3-pyridyl) 2-pyrimidine-amine]
Dissolution of the capsule formulation compared with the β-form formulation [1]: better dissolution characteristics | Dissolution in capsule formulation ([1]; during 30 min): Dissolution of more than 95% | Dissolution of the capsule formulation compared with the β-form formulation ([1]; listed as α2-form): comparable and even better | Polymorph content of bulk imatinib mesylate, polymorph form detected [2, 6]: α2 form | Polymorph content of imatinib mesylate in formulated capsule, polymorph form detected [2, 6]: α2 form | Polymorph content of bulk imatinib mesylate, polymorph form detected [2, 7]: α2 form | Polymorph content of imatinib mesylate in formulated capsule, polymorph form detected [2, 7]: α2 form | Polymorph content of bulk imatinib mesylate, polymorph form detected [2, 8]: α2 form | Polymorph content of imatinib mesylate in formulated capsule, polymorph form detected [2, 8]: α2 form | Polymorph content of bulk imatinib mesylate, polymorph form detected [2, 9]: α2 form | Polymorph content of imatinib mesylate in formulated capsule, polymorph form detected [2, 9]: α2 form | Polymorph content of bulk imatinib mesylate, polymorph form detected [2, 10]: α2 form | Polymorph content of imatinib mesylate in formulated capsule, polymorph form detected [2, 10]: α2 form | Conversion to β-polymorphic form in capsule ([2]; about 40° C. and about 75% relative humidity for 6 months): does not show any significant conversion | Conversion over time to form β ([2]; bulk form or dosage form, about 40° and about 75% relative humidity, at least about 6 months): does not substantially convert | Stability at normal and accelerated stress conditions ([2]; in bulk and formulated capsule form): stable | Stability ([3]; listed as α2): stable | Stability ([3]; listed as α2-form): stable | Flow properties of the formulations, α2 form compared with β-form ([4]; same excipient composition): comparable | Flow properties ([4]; suitability for pharmaceutical solid dosage forms): Found to be well suited for | Hygroscopicity (Hygroscopicity): Non-hygroscopic | Polymorph form detected after heating ([5]; 110° C., 2 hours): α2 form | Polymorph form detected after heating ([5]; 110° C., 4 hours): α2 form | Heat stability ([5]; 120° C. for 6 hours): non-metastable and stable; also recorded: fairly stable to heat | Polymorph form detected after heating ([5]; 120° C., 2 hours): α2 form | Polymorph form detected after heating ([5]; 120° C., 4 hours): α2 form | Polymorph form detected after heating ([5]; 120° C., 6 hours): α2 form
